Assay results taken from ChEMBL document CHEMBL5678818, “Discovery of potent SOS1 inhibitors that block RAS activation via disruption of the RAS-SOS1 interaction” (Proc Natl Acad Sci U S A, 2019).

Assays:
[1] = target: Cyclin-dependent kinase 8 (Homo sapiens) (UniProt P49336); test: Inhibition of CDK8 (unknown origin) assessed as residual activity at 1000 nM by KINOMEscan analysis relative to control
[2] = target: T1, Rhodopsin kinase GRK7 (Homo sapiens) (UniProt Q8WTQ7); test: Inhibition of GRK7 (unknown origin) assessed as residual activity at 1000 nM by KINOMEscan analysis relative to control
T1 sequence (whole entry): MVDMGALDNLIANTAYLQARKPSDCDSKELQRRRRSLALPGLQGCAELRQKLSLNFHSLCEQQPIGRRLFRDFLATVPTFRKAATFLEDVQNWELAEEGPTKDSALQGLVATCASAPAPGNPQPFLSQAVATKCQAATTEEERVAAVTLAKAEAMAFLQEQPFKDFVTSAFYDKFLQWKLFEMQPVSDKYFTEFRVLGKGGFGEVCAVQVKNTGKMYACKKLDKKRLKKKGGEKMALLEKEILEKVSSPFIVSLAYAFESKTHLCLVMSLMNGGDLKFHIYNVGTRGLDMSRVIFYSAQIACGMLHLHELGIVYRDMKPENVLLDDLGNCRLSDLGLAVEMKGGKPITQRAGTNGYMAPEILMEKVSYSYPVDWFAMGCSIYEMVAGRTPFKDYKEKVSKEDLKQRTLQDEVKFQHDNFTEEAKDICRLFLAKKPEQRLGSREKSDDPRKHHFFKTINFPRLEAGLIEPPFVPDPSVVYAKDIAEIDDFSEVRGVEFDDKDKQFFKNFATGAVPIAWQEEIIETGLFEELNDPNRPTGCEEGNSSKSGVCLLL

[3] = target: Mitogen-activated protein kinase kinase kinase kinase 1 (Homo sapiens) (UniProt Q92918); test: Inhibition of HPK1 (unknown origin) assessed as residual activity at 1000 nM by KINOMEscan analysis relative to control
[4] = tested on: Mast/stem cell growth factor receptor Kit (Homo sapiens), P10721 [A829P]; test: Inhibition of KIT A829P mutant (unknown origin) assessed as residual activity at 1000 nM by KINOMEscan analysis relative to control
[5] = target: Serine/threonine-protein kinase PRP4 homolog (Homo sapiens) (UniProt Q13523); test: Inhibition of PRP4 (unknown origin) assessed as residual activity at 1000 nM by KINOMEscan analysis relative to control
[6] = target: Ribosomal protein S6 kinase alpha-3 (Homo sapiens) (UniProt P51812); test: Inhibition of N-terminal RSK2 kinetic domain 1 (unknown origin) assessed as residual activity at 1000 nM by KINOMEscan analysis relative to control
[7] = target: Ribosomal protein S6 kinase alpha-6 (Homo sapiens) (UniProt Q9UK32); test: Inhibition of C-terminal RSK4 kinetic domain 2 (unknown origin) assessed as residual activity at 1000 nM by KINOMEscan analysis relative to control
[8] = target: T2, SNF-related serine/threonine-protein kinase (Homo sapiens) (UniProt Q9NRH2); test: Inhibition of SNRK (unknown origin) assessed as residual activity at 1000 nM by KINOMEscan analysis relative to control
T2 sequence (whole entry): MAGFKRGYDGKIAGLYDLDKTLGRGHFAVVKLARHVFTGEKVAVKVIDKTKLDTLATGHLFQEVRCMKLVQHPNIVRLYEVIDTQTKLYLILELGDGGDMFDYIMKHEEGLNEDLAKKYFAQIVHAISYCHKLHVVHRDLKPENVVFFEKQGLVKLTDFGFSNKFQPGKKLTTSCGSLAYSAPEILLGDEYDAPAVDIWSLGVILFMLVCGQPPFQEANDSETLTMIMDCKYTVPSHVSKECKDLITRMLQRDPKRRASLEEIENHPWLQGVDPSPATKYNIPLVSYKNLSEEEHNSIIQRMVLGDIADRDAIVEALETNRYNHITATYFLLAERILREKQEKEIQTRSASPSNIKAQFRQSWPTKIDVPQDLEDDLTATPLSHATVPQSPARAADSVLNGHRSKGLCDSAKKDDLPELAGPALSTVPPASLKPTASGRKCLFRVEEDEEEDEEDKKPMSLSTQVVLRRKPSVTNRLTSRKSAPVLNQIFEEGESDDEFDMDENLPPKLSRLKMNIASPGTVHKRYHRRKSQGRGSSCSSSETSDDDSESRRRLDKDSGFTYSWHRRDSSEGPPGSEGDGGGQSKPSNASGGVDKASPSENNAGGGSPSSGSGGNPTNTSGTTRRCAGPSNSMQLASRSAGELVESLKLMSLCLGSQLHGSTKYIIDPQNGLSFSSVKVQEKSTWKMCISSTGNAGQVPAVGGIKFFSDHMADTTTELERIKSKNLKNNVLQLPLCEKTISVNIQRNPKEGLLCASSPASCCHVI

[9] = target: T3, Serine/threonine-protein kinase ULK3 (Homo sapiens) (UniProt Q6PHR2); test: Inhibition of ULK3 (unknown origin) assessed as residual activity at 1000 nM by KINOMEscan analysis relative to control
T3 sequence (whole entry): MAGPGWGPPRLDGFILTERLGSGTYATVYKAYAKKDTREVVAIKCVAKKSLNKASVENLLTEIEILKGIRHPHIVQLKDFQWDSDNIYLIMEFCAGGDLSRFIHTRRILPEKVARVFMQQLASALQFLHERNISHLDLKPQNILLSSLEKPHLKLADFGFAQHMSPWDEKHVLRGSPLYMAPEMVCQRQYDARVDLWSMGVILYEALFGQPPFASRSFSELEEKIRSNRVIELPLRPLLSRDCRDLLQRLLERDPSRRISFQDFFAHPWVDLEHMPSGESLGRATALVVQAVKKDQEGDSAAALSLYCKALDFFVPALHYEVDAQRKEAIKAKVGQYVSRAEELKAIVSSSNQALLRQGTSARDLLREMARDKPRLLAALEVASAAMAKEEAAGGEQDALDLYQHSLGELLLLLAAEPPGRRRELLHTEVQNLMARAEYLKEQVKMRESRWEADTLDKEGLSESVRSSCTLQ

Sequence of Mitogen-activated protein kinase kinase kinase kinase 1 (Homo sapiens) (Q92918 whole entry, looked up): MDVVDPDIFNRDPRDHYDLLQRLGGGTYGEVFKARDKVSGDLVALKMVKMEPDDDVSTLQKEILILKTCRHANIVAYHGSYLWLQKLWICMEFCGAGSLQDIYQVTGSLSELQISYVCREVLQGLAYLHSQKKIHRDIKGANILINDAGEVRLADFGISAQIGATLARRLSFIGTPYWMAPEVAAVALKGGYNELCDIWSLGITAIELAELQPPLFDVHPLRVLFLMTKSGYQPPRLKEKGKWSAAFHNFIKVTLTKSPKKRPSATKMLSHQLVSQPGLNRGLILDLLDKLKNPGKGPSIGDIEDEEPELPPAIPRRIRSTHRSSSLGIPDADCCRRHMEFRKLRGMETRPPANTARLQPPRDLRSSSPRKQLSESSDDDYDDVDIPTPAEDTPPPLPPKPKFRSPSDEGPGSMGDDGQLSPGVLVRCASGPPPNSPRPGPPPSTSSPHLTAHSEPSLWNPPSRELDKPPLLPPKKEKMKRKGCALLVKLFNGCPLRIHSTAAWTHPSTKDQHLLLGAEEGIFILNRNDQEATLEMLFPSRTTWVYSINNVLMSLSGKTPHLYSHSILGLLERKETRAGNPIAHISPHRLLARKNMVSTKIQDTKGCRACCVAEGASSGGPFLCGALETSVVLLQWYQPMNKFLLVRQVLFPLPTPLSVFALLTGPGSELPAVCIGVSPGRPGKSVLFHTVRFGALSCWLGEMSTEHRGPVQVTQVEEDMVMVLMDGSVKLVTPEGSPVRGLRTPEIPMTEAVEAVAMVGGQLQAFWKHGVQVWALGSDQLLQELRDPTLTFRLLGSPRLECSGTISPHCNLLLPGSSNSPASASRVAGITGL
Sequence of Cyclin-dependent kinase 8 (Homo sapiens) (P49336 whole entry): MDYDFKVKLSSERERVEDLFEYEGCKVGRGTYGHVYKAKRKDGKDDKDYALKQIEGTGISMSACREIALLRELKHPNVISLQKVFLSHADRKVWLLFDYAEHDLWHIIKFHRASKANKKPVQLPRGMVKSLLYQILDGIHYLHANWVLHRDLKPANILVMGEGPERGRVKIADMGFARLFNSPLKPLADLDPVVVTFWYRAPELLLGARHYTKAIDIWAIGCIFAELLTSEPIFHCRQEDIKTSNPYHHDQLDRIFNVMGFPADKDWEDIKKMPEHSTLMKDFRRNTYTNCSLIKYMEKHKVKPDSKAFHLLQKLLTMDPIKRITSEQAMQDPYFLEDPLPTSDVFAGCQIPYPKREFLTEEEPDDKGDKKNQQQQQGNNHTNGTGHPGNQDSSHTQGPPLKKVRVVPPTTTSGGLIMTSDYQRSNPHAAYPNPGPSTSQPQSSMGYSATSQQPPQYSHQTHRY
Sequence of Ribosomal protein S6 kinase alpha-6 (Homo sapiens) (Q9UK32 whole entry, the tested form may be a part): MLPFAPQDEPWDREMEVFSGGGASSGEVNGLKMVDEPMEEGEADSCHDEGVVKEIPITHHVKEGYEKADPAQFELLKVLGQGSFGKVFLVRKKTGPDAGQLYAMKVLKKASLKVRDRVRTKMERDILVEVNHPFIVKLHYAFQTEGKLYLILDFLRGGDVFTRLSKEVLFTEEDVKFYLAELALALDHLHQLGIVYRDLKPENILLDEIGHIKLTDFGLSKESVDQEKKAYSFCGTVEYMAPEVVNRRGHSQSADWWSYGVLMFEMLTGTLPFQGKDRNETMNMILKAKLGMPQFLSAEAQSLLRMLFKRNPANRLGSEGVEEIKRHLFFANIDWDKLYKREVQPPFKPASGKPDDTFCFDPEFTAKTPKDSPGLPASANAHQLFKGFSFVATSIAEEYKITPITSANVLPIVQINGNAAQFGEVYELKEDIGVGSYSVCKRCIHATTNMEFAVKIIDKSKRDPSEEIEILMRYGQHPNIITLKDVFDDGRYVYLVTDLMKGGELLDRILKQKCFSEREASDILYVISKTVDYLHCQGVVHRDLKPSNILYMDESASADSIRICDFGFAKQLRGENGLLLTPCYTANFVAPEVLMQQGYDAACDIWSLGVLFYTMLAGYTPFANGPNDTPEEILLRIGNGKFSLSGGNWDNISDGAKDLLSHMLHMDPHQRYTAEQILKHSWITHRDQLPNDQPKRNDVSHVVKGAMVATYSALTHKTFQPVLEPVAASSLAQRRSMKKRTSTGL
Sequence of Serine/threonine-protein kinase PRP4 homolog (Homo sapiens) (Q13523 whole entry, the tested form may be a part): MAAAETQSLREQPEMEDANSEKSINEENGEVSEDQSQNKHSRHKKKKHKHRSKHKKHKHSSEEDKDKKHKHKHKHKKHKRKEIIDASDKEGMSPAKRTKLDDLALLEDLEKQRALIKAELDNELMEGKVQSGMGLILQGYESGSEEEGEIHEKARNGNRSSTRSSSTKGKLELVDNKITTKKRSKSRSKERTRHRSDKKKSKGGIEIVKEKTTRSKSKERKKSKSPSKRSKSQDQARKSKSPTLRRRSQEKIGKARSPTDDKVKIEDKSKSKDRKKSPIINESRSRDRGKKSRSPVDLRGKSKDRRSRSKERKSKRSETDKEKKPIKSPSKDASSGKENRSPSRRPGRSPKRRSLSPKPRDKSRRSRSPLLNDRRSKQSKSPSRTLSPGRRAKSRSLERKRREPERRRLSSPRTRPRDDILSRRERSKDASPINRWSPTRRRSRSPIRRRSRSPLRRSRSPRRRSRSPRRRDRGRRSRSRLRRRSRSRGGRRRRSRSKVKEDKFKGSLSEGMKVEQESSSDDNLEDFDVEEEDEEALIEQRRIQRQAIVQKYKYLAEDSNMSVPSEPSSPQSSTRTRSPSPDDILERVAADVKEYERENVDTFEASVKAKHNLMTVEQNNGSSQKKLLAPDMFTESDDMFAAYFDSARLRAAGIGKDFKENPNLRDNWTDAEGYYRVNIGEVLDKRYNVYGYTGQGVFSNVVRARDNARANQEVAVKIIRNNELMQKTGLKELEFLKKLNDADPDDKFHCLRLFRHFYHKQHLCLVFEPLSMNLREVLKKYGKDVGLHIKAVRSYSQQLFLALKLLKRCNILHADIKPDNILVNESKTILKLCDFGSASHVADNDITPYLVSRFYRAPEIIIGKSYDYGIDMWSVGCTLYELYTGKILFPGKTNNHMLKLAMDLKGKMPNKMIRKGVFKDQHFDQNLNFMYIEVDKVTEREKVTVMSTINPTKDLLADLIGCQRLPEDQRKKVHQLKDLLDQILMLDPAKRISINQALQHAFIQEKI
Sequence of Mast/stem cell growth factor receptor Kit (Homo sapiens), P10721 [A829P] (P10721 whole entry A829P): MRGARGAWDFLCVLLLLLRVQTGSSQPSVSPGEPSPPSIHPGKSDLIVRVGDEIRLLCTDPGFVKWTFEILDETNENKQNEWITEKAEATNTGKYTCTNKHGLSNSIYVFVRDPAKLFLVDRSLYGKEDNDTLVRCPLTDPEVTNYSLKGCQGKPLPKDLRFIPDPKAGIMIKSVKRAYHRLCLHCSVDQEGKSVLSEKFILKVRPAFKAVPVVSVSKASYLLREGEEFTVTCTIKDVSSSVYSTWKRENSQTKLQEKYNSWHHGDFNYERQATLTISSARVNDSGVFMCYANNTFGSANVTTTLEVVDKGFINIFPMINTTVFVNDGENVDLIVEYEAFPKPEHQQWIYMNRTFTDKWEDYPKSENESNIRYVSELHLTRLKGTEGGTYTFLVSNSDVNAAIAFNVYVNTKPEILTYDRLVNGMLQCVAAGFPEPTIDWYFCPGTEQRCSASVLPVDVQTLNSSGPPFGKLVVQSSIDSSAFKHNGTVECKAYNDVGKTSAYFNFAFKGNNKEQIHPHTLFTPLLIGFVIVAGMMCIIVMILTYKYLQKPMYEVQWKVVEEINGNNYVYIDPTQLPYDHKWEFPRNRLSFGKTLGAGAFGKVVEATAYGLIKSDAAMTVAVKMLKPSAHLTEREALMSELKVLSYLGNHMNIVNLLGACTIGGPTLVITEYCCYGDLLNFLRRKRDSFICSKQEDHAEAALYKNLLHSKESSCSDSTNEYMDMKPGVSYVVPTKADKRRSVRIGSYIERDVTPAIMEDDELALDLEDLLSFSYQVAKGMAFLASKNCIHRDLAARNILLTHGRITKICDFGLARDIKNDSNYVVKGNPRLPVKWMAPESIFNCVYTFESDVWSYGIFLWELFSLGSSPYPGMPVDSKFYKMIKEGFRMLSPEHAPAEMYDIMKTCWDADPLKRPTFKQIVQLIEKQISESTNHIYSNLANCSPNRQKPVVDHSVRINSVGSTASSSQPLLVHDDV
Sequence of Ribosomal protein S6 kinase alpha-3 (Homo sapiens) (P51812 whole entry, the tested form may be a part): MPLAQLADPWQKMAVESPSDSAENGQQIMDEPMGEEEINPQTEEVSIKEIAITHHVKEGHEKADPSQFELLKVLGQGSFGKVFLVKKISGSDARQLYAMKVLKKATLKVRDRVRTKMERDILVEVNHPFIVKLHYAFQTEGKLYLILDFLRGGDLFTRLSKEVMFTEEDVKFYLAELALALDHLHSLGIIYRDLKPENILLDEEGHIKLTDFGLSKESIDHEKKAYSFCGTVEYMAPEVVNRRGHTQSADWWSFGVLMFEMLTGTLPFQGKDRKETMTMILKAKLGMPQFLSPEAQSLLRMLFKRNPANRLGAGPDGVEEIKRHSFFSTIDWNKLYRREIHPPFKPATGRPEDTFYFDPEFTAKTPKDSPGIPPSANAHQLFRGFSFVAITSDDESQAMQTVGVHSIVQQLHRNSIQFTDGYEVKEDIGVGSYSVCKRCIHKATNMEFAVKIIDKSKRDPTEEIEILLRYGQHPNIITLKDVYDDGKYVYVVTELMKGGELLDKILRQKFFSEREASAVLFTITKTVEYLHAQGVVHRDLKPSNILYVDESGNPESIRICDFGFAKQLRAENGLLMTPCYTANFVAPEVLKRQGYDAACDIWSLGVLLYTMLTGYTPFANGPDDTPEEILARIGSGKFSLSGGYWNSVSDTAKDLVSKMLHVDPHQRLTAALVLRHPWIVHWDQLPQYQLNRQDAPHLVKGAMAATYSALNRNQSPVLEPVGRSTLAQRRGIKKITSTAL

Structure (SMILES) | Activity [1] [%] | Activity [2] [%] | Activity [3] [%] | Activity [4] [%] | Activity [5] [%] | Activity [6] [%] | Activity [7] [%] | Activity [8] [%] | Activity [9] [%]
COc1cc2nc(C)nc(N[C@H](C)c3cccc(-c4cn[nH]c4)c3)c2cc1OC | 91 | 100 | 97 | 93 | 94 | 60 | 53 | 95 | 82
COc1cc2ncnc(N[C@H](C)c3cccc4ccccc34)c2cc1OC | 93 | 81 | 100 | 94 | 95 | 95 | 95 | 92 | 99
